In article PMC12316308, “Interactions of substrates and phosphinyl containing inhibitors with bacterial and human zinc proteases” (PLOS One, 2025):
Where “and” joins values, the source holds several entries; their conditions need not be identical. Equal entries are not always repeated. Where two headings read alike, the source gives them in different places.

Columns and labels:
Assay type in all cases: biochemical
thermolysin (TLN) = target: T1, thermolysin (TLN) (Bacillus thermoproteolyticus, UniProt P00800); experiment: Enzyme inhibition kinetics, fluorogenic substrate ES005; settings: for vi/v0 avg (time dependent inhibition, Supplementary Figure S8): Thermolysin, inhibitor 100 µM
T1 construct: purchased Calbiochem (San Diego, CA, USA)
T1 sequence (P00800 233-548): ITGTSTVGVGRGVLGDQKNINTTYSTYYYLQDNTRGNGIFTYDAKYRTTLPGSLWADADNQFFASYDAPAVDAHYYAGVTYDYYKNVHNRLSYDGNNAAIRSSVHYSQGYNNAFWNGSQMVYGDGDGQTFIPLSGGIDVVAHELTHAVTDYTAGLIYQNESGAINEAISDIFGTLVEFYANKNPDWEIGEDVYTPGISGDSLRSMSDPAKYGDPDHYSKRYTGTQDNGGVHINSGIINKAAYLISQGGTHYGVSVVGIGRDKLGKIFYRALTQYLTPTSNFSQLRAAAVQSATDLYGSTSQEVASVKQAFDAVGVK
Method: (§1) Determination of reaction velocities. The substrate ES001 was used for APMA activated MMP-9 (MMP-9(A)), Mag-Trypsin activated MMP-9 (MMP-9(MT)) and MMP-14, while the substrate ES005 was used for ALN, PLN and TLN. The reaction velocities/initial rates (v) were determined at 37°C, at an excitation wavelength of 320 nm and an emission wavelength of 405 nm with a slit width of 10 nm using either a Perkin Elmer LS 50 Luminescence spectrometer and the FL WinLab Software Package (Perkin Elmer) or a Clario Star micro plate reader (CLARIOstar® BMG LABTECH).
(§2) The phosphinic compounds were dissolved in 100% DMSO to a final concentration of 10 mM. In all assays, a fixed substrate concentration of 4.0 µM was used in a total volume of 100 µL 0.1 M Hepes pH 7.5, 10 mM CaCl2, 0.005% Brij-35 and 1.0% DMSO. Fixed enzyme concentrations were as follows; 0.05 nM MMP-9(A), 0.05 nM MMP-9(MT), 1.0 nM MMP-14, 1.4 nM ALN, 0.5 nM PLN and 0.21 nM TLN. Time dependent inhibitory experiments, with and without 100 μM of phosphinic compounds, were performed as follows: Compounds were either pre-incubated with proteases for 15 and 30 minutes at room temperature before initiating the enzymatic reaction by adding the substrate, or not pre-incubated, meaning the reaction was initiated by adding the protease to the mixture of substrate and compound. Control tests without the compound present were performed under the same conditions. Reactions were monitored for 30 minutes at 37°C.
(§3) Determination of IC50 and Ki values. […] A fixed substrate concentration and the same enzyme and buffer conditions as described above were used. Enzymes, with or without inhibitors, were either pre-incubated for 30 minutes at room temperature or not pre-incubated, and initial rate assays were performed as described above. Assays were performed using a Clario Star microplate reader. The IC50 values with corresponding s.d. were calculated with GraphPad Prism 5 using equation 1 or 2, depending on the concentration range of the phosphinic compounds.
(§4) Equation 3 describe the relationship between IC50 and Ki values for substrate competitive inhibitors, considering the fixed substrate concentration and the enzyme’s Km value for the substrate: […]

aureolysin (ALN) = target: T2, aureolysin (ALN) (Staphylococcus aureus, UniProt P81177); experiment: as above; settings: for remaining activity at 100 µM: 100 µM inhibitor
T2 construct: purchased BioCentrum Ltd (Kraków, Poland)
T2 sequence (P81177 209-509): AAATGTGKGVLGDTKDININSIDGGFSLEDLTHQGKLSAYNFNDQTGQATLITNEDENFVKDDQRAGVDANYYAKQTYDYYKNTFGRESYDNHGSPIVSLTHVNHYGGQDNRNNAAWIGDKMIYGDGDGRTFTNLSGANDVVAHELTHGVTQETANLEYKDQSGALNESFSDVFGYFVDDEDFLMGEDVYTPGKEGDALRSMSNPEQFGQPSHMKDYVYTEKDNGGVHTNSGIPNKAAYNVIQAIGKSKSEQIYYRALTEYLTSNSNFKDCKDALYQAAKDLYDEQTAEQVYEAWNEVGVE
Method: as §1, §2, §3, §4

pseudolysin (PLN, LasB) = target: T3, pseudolysin (PLN, LasB) (Pseudomonas aeruginosa, UniProt P14756); experiment: as above; settings: for remaining activity at 100 µM: 100 µM inhibitor
T3 construct: purchased Calbiochem (San Diego, CA, USA)
T3 sequence (P14756 198-498): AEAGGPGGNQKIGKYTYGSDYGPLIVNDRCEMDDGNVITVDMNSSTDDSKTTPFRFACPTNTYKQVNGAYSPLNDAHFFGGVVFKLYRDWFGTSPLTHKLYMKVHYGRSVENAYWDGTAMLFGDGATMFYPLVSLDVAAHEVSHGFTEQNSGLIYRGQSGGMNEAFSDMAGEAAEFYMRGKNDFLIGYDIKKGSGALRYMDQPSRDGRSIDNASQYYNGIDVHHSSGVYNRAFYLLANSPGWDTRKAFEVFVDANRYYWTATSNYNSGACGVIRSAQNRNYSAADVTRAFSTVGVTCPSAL
Method: as §1, §2, §3, §4

[1] = target: T4, human MT1-MMP/MMP-14 (catalytic domain) (Homo sapiens, UniProt P50281); experiment: Enzyme inhibition kinetics, fluorogenic substrate ES001; settings: MMP-14; for remaining activity at 100 µM: 100 µM inhibitor
T4 construct: human MT1-MMP/MMP-14 (catalytic domain); purchased Calbiochem (San Diego, CA, USA)
Method: as §1, §2, §3, §4

[2] = target: T5, Mag-Trypsin activated MMP-9 (MMP-9(MT)) (Homo sapiens, UniProt P14780); experiment: as above; settings: rMMP-9 (Mag-trypsin activated); for remaining activity at 100 µM: 100 µM inhibitor
T5 construct: made in house; host or cells: Sf9 and High Five insect cells
T5 sequence (P14780 107-707 limits assumed): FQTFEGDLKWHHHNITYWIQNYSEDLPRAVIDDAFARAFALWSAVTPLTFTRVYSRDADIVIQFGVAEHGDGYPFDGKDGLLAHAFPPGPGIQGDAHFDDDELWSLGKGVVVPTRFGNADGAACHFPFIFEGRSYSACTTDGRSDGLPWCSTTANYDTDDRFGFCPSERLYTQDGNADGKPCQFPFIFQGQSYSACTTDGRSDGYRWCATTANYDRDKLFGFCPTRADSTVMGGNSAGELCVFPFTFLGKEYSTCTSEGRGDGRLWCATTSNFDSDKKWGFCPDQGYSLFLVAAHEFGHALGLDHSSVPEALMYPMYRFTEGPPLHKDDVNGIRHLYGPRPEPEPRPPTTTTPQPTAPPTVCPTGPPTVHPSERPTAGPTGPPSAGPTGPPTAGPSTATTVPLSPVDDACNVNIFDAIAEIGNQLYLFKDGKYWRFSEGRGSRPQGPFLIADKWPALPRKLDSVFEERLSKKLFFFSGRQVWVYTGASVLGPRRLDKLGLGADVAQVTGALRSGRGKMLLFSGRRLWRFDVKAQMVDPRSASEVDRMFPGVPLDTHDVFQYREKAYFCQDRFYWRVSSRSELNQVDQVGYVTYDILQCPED
Method: (§5) The expression of recombinant full length proMMP-9 (rpMMP-9) in Sf9 and High Five insect cells and the purification were performed as previously described. The amount of proMMP-9 was estimated spectrophotometrically at 280 nm using ε280nm = […] [46] for the full length enzyme. Activation of the recombinant proMMP-9 was performed with APMA (auto-activation) and Mag-Trypsin as previously described, while the amount of active MMP-9 was determined by active site titration using galardin, also described previously.
as §1, §2, §3, §4

[3] = target: T6, APMA activated MMP-9 (MMP-9(A)) (Homo sapiens, UniProt P14780); experiment: as above; settings: rMMP-9 (APMA activated); for remaining activity at 100 µM: 100 µM inhibitor
T6 construct: made in house; host or cells: Sf9 and High Five insect cells
T6 sequence (P14780 107-707 limits assumed): as above
Method: as §5, §1, §2, §3, §4

[4] = 0.25 h, 15 min pre incubation, read-out: vi/v0 avg
[5] = 0.5 h, 30 min pre incubation, read-out: vi/v0 (single replicate)
[6] = 0.5 h, 30 min pre incubation, read-out: vi/v0 avg
[7] = no preincubation, read-out: vi/v0 avg
[8] = inhibitor 100 μM, preincubation 0 min
[9] = inhibitor 100 μM, preincubation 15 min
[10] = inhibitor 100 μM, preincubation 30 min
[11] = 0.25 h, 15 min pre incubation, read-out: vi/v0 (single replicate)
[12] = no preincubation, read-out: vi/v0 (single replicate)
[13] = inhibitor 100 μM, average over 0, 15, 30 min preincubation

For `CC(NC(=O)OCc1ccccc1)P(=O)(O)CC(Cc1ccccc1)C(=O)O` (centres unmarked) [H4], the “vi/v0 Av (bar diagram figure 7)” value (thermolysin (TLN); Thermolysin (TLN), inhibitor 100 μM, average over 0, 15, 30 min preincubation) was 0.9988, the “vi/v0 (relative enzyme activity with inhibitor), single determinations” value (thermolysin (TLN); Thermolysin (TLN), inhibitor 100 μM, preincubation 0 min) was 1.0006 and 1.038 and 0.8834 and 0.9657 and the “vi/v0 (relative enzyme activity with inhibitor), single determinations” value (thermolysin (TLN); Thermolysin (TLN), inhibitor 100 μM, preincubation 15 min) was 1.066 and 0.8371 and 1.067 and 1.122. For the same compound, the “vi/v0 (relative enzyme activity with inhibitor), single determinations” value (thermolysin (TLN); Thermolysin (TLN), inhibitor 100 μM, preincubation 30 min) was 1.04 and 0.9732 and 1.001 and 0.9929, the “vi/v0 avg (time dependent inhibition, Supplementary Figure S8)” value (thermolysin (TLN); 15 min pre incubation) was 1.023 and the “vi/v0 avg (time dependent inhibition, Supplementary Figure S8)” value (thermolysin (TLN); 30 min pre incubation) was 1.002. For the same compound, the “vi/v0 avg (time dependent inhibition, Supplementary Figure S8)” value (thermolysin (TLN); No preincubation) was 0.9718, the remaining activity at 100 µM (aureolysin (ALN); 0.25 h, read-out: vi/v0 (single replicate), Aureolysin, 15 min pre incubation) was 91.1% and the remaining activity at 100 µM (aureolysin (ALN); 0.25 h, read-out: vi/v0 avg, Aureolysin, 15 min pre incubation) was 90.2%. For the same compound, the remaining activity at 100 µM (aureolysin (ALN); 0.5 h, read-out: vi/v0 (single replicate), Aureolysin, 30 min pre incubation) was 90.1%, the remaining activity at 100 µM (aureolysin (ALN); 0.5 h, read-out: vi/v0 avg, Aureolysin, 30 min pre incubation) was 89.4% and the “vi/v0 Av (bar diagram figure 7)” value (aureolysin (ALN); Aureolysin (ALN), inhibitor 100 μM, average over 0, 15, 30 min preincubation) was 0.8998. For the same compound, the “vi/v0 (relative enzyme activity with inhibitor), single determinations” value (aureolysin (ALN); Aureolysin (ALN), inhibitor 100 μM, preincubation 0 min) was 0.9356 and 0.8634 and 0.8536 and 0.9579, the “vi/v0 (relative enzyme activity with inhibitor), single determinations” value (aureolysin (ALN); Aureolysin (ALN), inhibitor 100 μM, preincubation 15 min) was 0.9112 and 0.976 and 0.8542 and 0.865 and the “vi/v0 (relative enzyme activity with inhibitor), single determinations” value (aureolysin (ALN); Aureolysin (ALN), inhibitor 100 μM, preincubation 30 min) was 0.898 and 0.8819. The remaining activity at 100 µM (aureolysin (ALN); read-out: vi/v0 (single replicate), Aureolysin, no preincubation) was 93.6%, the remaining activity at 100 µM (aureolysin (ALN); read-out: vi/v0 avg, Aureolysin, no preincubation) was 90.3% and the remaining activity at 100 µM (pseudolysin (PLN, LasB); 0.25 h, read-out: vi/v0 (single replicate), Pseudolysin, 15 min pre incubation) was 75.8%. The remaining activity at 100 µM (pseudolysin (PLN, LasB); 0.25 h, read-out: vi/v0 avg, Pseudolysin, 15 min pre incubation) was 75.4%, the remaining activity at 100 µM (pseudolysin (PLN, LasB); 0.5 h, read-out: vi/v0 (single replicate), Pseudolysin, 30 min pre incubation) was 64.2% and the remaining activity at 100 µM (pseudolysin (PLN, LasB); 0.5 h, read-out: vi/v0 avg, Pseudolysin, 30 min pre incubation) was 64%. The “vi/v0 Av (bar diagram figure 7)” value (pseudolysin (PLN, LasB); Pseudolysin (PLN), inhibitor 100 μM, average over 0, 15, 30 min preincubation) was 0.7111, the “vi/v0 (relative enzyme activity with inhibitor), single determinations” value (pseudolysin (PLN, LasB); Pseudolysin (PLN), inhibitor 100 μM, preincubation 0 min) was 0.8985 and 0.6806 and 0.6817 and the “vi/v0 (relative enzyme activity with inhibitor), single determinations” value (pseudolysin (PLN, LasB); Pseudolysin (PLN), inhibitor 100 μM, preincubation 15 min) was 0.7584 and 0.7504. For the same compound, the “vi/v0 (relative enzyme activity with inhibitor), single determinations” value (pseudolysin (PLN, LasB); Pseudolysin (PLN), inhibitor 100 μM, preincubation 30 min) was 0.6423 and 0.5711 and 0.7059, the remaining activity at 100 µM (pseudolysin (PLN, LasB); read-out: vi/v0 avg, Pseudolysin, no preincubation) was 75.4% and the remaining activity at 100 µM [1, 4] was 101%. For the same compound, the remaining activity at 100 µM [1, 5] was 101%, the remaining activity at 100 µM [1, 6] was 102% and the remaining activity at 100 µM [1, 7] was 106%. For the same compound, the “vi/v0 Av (bar diagram figure 7)” value ([1]; inhibitor 100 μM, average over preincubation times) was 1.032, the “vi/v0 (relative enzyme activity with inhibitor), single determinations” value [1, 8] was 1.105 and 1.3078 and 1.015 and 0.8074 and the “vi/v0 (relative enzyme activity with inhibitor), single determinations” value [1, 9] was 0.8428 and 1.155 and 1.039. For the same compound, the “vi/v0 (relative enzyme activity with inhibitor), single determinations” value [1, 10] was 1.0115 and 1.061 and 0.9741, the remaining activity at 100 µM [2, 11] was 93.4% and the remaining activity at 100 µM [2, 4] was 93.8%. It also gave a remaining activity at 100 µM [2, 5] of 97.8%, a remaining activity at 100 µM [2, 6] of 96.3% and a remaining activity at 100 µM [2, 12] of 84.9%. For the same compound, the remaining activity at 100 µM [2, 7] was 88.4%, the “vi/v0 Av (bar diagram figure 7)” value [2, 13] was 0.9238 and the “vi/v0 (relative enzyme activity with inhibitor), single determinations” value [2, 8] was 0.8486 and 0.9422 and 0.8609. For the same compound, the “vi/v0 (relative enzyme activity with inhibitor), single determinations” value [2, 9] was 0.9336 and 1.006 and 0.8738, the “vi/v0 (relative enzyme activity with inhibitor), single determinations” value [2, 10] was 0.9779 and 0.9473 and the remaining activity at 100 µM [3, 11] was 99.2%. It also gave a remaining activity at 100 µM [3, 4] of 95%, a remaining activity at 100 µM [3, 6] of 100% and a remaining activity at 100 µM [3, 12] of 94.1%. The remaining activity at 100 µM [3, 7] was 99.6%, the “vi/v0 Av (bar diagram figure 7)” value [3, 13] was 0.9837 and the “vi/v0 (relative enzyme activity with inhibitor), single determinations” value [3, 8] was 0.9415 and 1.015 and 1.031. For the same compound, the “vi/v0 (relative enzyme activity with inhibitor), single determinations” value [3, 9] was 0.9922 and 0.9231 and 0.9335 and the “vi/v0 (relative enzyme activity with inhibitor), single determinations” value [3, 10] was 1.197 and 1.012 and 1.109 and 0.6833.
